Measurements published in US12016847B2, “Methods of treating prostate cancer” (Bristol-Myers Squibb Company, priority 2021, dated 2024).

Assays:
HEXIM1 [1] = assay: Gene expression analysis (qPCR), HEXIM1 in 22Rv.1 cells; type: cell-based; conditions: 48 h
Description: (§1) VCaP, LNCaP, 22Rv.1, DU145 and PC3 cancer cell lines were obtained from ATCC. VCaP were cultured in DMEM media supplemented with 8% FBS, LNCaP, 22Rv.1 and DU145 were cultured in RPMI1640 media supplemented with 10% FBS, and PC3 were cultured in F12K media supplemented with 10% FBS.
(§2) Cells were plated in a 6-well format and were allowed to adhere 24 h before treatment. Cells were treated for 48 h before collecting them. RNA was purified from cells using the RNeasy kit (Qiagen) according to the manufacturer's instructions. Quantitative RTPCR was performed using the TaqMan assay (Thermo Fisher Scientific) on the ABI QuantStudio 7 Flex Real-Time PCR System.

VCaP cells = assay: Proliferation assay (Cell Titer-Glo), VCaP cells; type: cell-based; conditions: 3 days
Description: as §1
(§3) Cells were plated in a 96-well format and were allowed to adhere 24 h before treatment. Drugs were titrated 1:3 from 1 μM to 0.1 nM with 9 doses in triplicate. Cell proliferation was measured on the day of treatment (Day 0) and on Day 3 using Cell Titer-Glo reagent (Promega) according to the manufacturer's instructions. Cell growth normalized to the DMSO vehicle control and to Day 0 was fitted by nonlinear regression using GraphPad Prism 7.03 (GraphPad Software, Inc.).

HEXIM1 [2] = assay: Gene expression analysis (qPCR), HEXIM1 in LNCaP cells; type: cell-based, human; conditions: 48 h
Description: as §1, §2

PC3 cells = assay: Proliferation assay (Cell Titer-Glo), PC3 cells; type: cell-based; conditions: 3 days
Description: as §1, §3

MYC [3] = assay: Gene expression analysis (qPCR), MYC in LNCaP cells; type: cell-based, human; conditions: 48 h
Description: as §1, §2

DU145 cells = assay: Proliferation assay (Cell Titer-Glo), DU145 cells; type: cell-based; conditions: 3 days
Description: as §1, §3

LNCaP cells = assay: Proliferation assay (Cell Titer-Glo), LNCaP cells; type: cell-based, human; conditions: 3 days of treatment, at 1 uM, related to Day 0 and DMSO
Description: as §1, §3

TMPRSS2 [4] = assay: Gene expression analysis (qPCR), TMPRSS2 in 22Rv.1 cells; type: cell-based; conditions: 48 h
Description: as §1, §2

KLK3 [5] = assay: Gene expression analysis (qPCR), KLK3 in 22Rv.1 cells; type: cell-based; conditions: 48 h
Description: as §1, §2

TMPRSS2 [6] = assay: Gene expression analysis (qPCR), TMPRSS2 in VCaP cells; type: cell-based; conditions: 48 h
Description: as §1, §2

[7] = system: Neuroendocrine prostate cancer models; assay: Proliferation assay, all Neuroendocrine prostate cancer models tested (summary); type: cell-based; conditions: DU145 and PC3 models, summary statement
Description: as §1, §3

KLK3 [8] = assay: Gene expression analysis (qPCR), KLK3 in LNCaP cells; type: cell-based, human; conditions: 48 h
Description: as §1, §2

MYC [9] = assay: Gene expression analysis (qPCR), MYC in 22Rv.1 cells; type: cell-based; conditions: 48 h
Description: as §1, §2

MYC [10] = assay: Gene expression analysis (qPCR), MYC in VCaP cells; type: cell-based; conditions: 48 h
Description: as §1, §2

22Rv.1 cells = assay: Proliferation assay (Cell Titer-Glo), 22Rv.1 cells; type: cell-based; conditions: Homo sapiens, 22Rv1, 72 h, 3 days
Description: as §1, §3

HEXIM1 [11] = assay: Gene expression analysis (qPCR), HEXIM1 in VCaP cells; type: cell-based; conditions: 48 h
Description: as §1, §2

KLK3 [12] = assay: Gene expression analysis (qPCR), KLK3 in VCaP cells; type: cell-based; conditions: 48 h
Description: as §1, §2

Cc1nnn(C)c1-c1cnc2c3ccc(C(C)(C)O)cc3n([C@H](c3ccccc3)C3CCOCC3)c2c1 [Compound A, 2-[3-(1,4-dimethyl-1H-1,2,3-triazol-5-yl)-5-[(S)-(oxan-4-yl)(phenyl)methyl]-5H-pyrido[3,2-b]indol-7-yl]propan-2-ol]
induction of HEXIM1 (HEXIM1 [1]; 4 nM): 31%
upregulation of HEXIM1 (HEXIM1 [1]; 40 nM): 91.5%
growth arrest of VCaP proliferation (VCaP cells; at 0.1 uM, related to Day 0 and DMSO): 100%
cytotoxic effect on VCaP cells (VCaP cells; at the highest concentrations): cytotoxic effects
upregulation of HEXIM1 (HEXIM1 [2]; 4 nM): 446.8%
upregulation of HEXIM1 (HEXIM1 [2]; 40 nM): 533.3%
reduction of PC3 proliferation (PC3 cells): 67%
IC50 (PC3 cells; Homo sapiens, PC-3, 72 h): 4.1 nM
downregulation of MYC (MYC [3]; 4 nM): 84.1%
downregulation of MYC (MYC [3]; 40 nM): 93.6%
reduction of DU145 proliferation (DU145 cells): 61.9%
growth arrest of LNCaP cells (LNCaP cells): 100%
reduction of TMPRSS2 compared to DMSO (TMPRSS2 [4]; 4 nM): 97.0%
reduction of TMPRSS2 compared to DMSO (TMPRSS2 [4]; 40 nM): 97.8%
downregulation of KLK3 (KLK3 [5]; 4 nM): 99.9%
downregulation of KLK3 (KLK3 [5]; 40 nM): 99.8%
downregulation of TMPRSS2 (TMPRSS2 [6]; 4 nM): 32.8%
downregulation of TMPRSS2 (TMPRSS2 [6]; 40 nM): 51.9%
reduction of cell proliferation in all Neuroendocrine prostate cancer models tested [7]: ≥ 61.9%
downregulation of KLK3 (KLK3 [8]; 4 nM): 58.8%
downregulation of KLK3 (KLK3 [8]; 40 nM): 92.0%
downregulation of MYC (MYC [9]; 4 nM): 98.5%
downregulation of MYC (MYC [9]; 40 nM): 99.3%
reduction in MYC expression (MYC [10]; 4 nM): 91.4%
MYC downregulation (MYC [10]; 40 nM): 95.7%
IC50 (22Rv.1 cells): 1.7 nM
HEXIM1 upregulated compared to DMSO (HEXIM1 [11]; 4 nM): 968.0%
HEXIM1 upregulated compared to DMSO (HEXIM1 [11]; 40 nM): 1257.5%
downregulation of KLK3 compared to DMSO (KLK3 [12]; 4 nM): 96.9%
downregulation of KLK3 compared to DMSO (KLK3 [12]; 40 nM): 99.4%
